{"source": "ChEMBL document CHEMBL5385961", "about": "“In vitro and in vivo evaluation of novel chromeno[2,3-d]pyrimidinones as therapeutic agents for triple negative breast cancer” (RSC Med Chem, 2024)", "key": {"[1]": {"system": "Hs-578T", "assay": "Cytotoxicity against human Hs-578T cells assessed as reduction in cell viability at 10 uM incubated for 72 hrs by SRB assay relative to control", "format": "functional"}, "[2]": {"assay": "Toxicity in wild type C57BL/6J mouse assessed as effect on horizontal activity at 10 to 50 mg/kg, ip administered daily for 7 days and measured daily", "format": "organism-based", "settings": "in vivo, 168 h, dose 10-50 mg/kg, time 7 day"}, "[3]": {"system": "Hs-578T", "assay": "Induction of cell cycle arrest in human Hs-578T cells assessed as accumulation of cells at S phase at IC50 measured after 24 hrs by RNase/PI staining based flow cytometry analysis", "format": "functional"}, "[4]": {"assay": "Toxicity in wild type C57BL/6J mouse assessed as reduction in body weight at 10 to 50 mg/kg, ip administered daily for 7 days", "format": "organism-based", "settings": "in vivo, 168 h, dose 10-50 mg/kg, time 7 day"}, "[5]": {"assay": "Toxicity in wild type C57BL/6J mouse assessed as effect on fur quality at 10 to 50 mg/kg, ip administered daily for 7 days and measured daily", "format": "organism-based", "settings": "in vivo, 168 h, dose 10-50 mg/kg, time 7 day"}, "[6]": {"system": "MDA-MB-231", "assay": "Cytotoxicity against human MDA-MB-231 cells assessed as cell viability at 30 uM incubated for 72 hrs by SRB assay relative to control", "format": "functional", "settings": "read-out: Activity"}, "[7]": {"system": "MCF7", "assay": "Cytotoxicity against human MCF7 cells assessed as cell viability at 10 uM incubated for 72 hrs by SRB assay relative to control", "format": "functional", "settings": "read-out: Activity"}, "[8]": {"assay": "Toxicity in wild type C57BL/6J mouse assessed as clasping at 10 to 50 mg/kg, ip administered daily for 7 days and measured daily", "format": "organism-based", "settings": "in vivo, 168 h, dose 10-50 mg/kg, time 7 day"}, "[9]": {"system": "Hs-578T", "assay": "Induction of cell cycle arrest in human Hs-578T cells assessed as increase in G2/M phase cell population at IC50 measured after 24 hrs by RNase/PI staining based flow cytometry analysis", "format": "functional"}, "[10]": {"assay": "Toxicity in wild type C57BL/6J mouse assessed as effect on bolus fecalis count at 10 to 50 mg/kg, ip administered daily for 7 days and measured daily", "format": "organism-based", "settings": "in vivo, 168 h, dose 10-50 mg/kg, time 7 day"}, "[11]": {"assay": "Toxicity in wild type C57BL/6J mouse assessed as effect on eyelid opening at 10 to 50 mg/kg, ip administered daily for 7 days and measured daily", "format": "organism-based", "settings": "in vivo, 168 h, dose 10-50 mg/kg, time 7 day"}, "[12]": {"assay": "Toxicity in wild type Caenorhabditis elegans N2 assessed as effect on food consumption at 0.0001 to 50 uM measured daily for 7 days by food clearance assay", "settings": "168 h, dose 0.0001-50 µM, time 7 day"}, "[13]": {"assay": "Toxicity in wild type C57BL/6J mouse assessed as effect on grooming at 10 to 50 mg/kg, ip administered daily for 7 days and measured daily", "format": "organism-based", "settings": "in vivo, 168 h, dose 10-50 mg/kg, time 7 day"}, "[14]": {"system": "MCF7", "assay": "Cytotoxicity against human MCF7 cells assessed as cell viability at 30 uM incubated for 72 hrs by SRB assay relative to control", "format": "functional", "settings": "read-out: Activity"}, "[15]": {"assay": "Toxicity in wild type C57BL/6J mouse assessed as mean food intake at 10 mg/kg, ip administered daily for 7 days", "format": "organism-based", "settings": "in vivo, 168 h, time 7 day"}, "[16]": {"system": "Hs-578T", "assay": "Induction of apoptosis in human Hs-578T cells assessed as reduction in viable cells at IC50 measured after 24 to 48 hrs by Annexin V-FITC/PI staining based flow cytometry analysis", "format": "functional, cell-based", "settings": "time 24-48 hrs"}, "[17]": {"assay": "Toxicity in wild type C57BL/6J mouse assessed as mean water intake per day at 10 to 50 mg/kg, ip administered daily for 7 days", "format": "organism-based", "settings": "in vivo, 168 h, dose 10-50 mg/kg, time 7 day"}, "[18]": {"system": "Hs-578T", "assay": "Induction of apoptosis in human Hs-578T cells assessed as increase in early apoptotic cells at IC50 measured after 48 hrs by Annexin V-FITC/PI staining based flow cytometry analysis relative to control", "format": "functional"}, "[19]": {"assay": "Cytotoxicity against human MCF-10A cells assessed as inhibition of cell growth incubated for 72 hrs by SRB assay", "format": "toxicity, cell-based"}, "[20]": {"system": "Hs-578T", "assay": "Induction of apoptosis in human Hs-578T cells assessed as increase in early apoptotic cells at IC50 measured after 24 to 48 hrs by Annexin V-FITC/PI staining based flow cytometry analysis", "format": "functional, cell-based", "settings": "time 24-48 hrs"}, "[21]": {"assay": "Toxicity in wild type C57BL/6J mouse assessed as effect on hydration at 10 to 50 mg/kg, ip administered daily for 7 days and measured daily", "format": "organism-based", "settings": "in vivo, 168 h, dose 10-50 mg/kg, time 7 day"}, "[22]": {"system": "Hs-578T", "assay": "Cytotoxicity against human Hs-578T cells assessed as cell viability at 30 uM incubated for 72 hrs by SRB assay relative to control", "format": "functional", "settings": "read-out: Activity"}, "[23]": {"assay": "Toxicity in wild type C57BL/6J mouse assessed as effect on respiratory rate at 10 to 50 mg/kg, ip administered daily for 7 days and measured daily", "format": "organism-based", "settings": "in vivo, 168 h, dose 10-50 mg/kg, time 7 day"}, "[24]": {"system": "Hs-578T", "assay": "Induction of apoptosis in human Hs-578T cells assessed as increase in BID protein expression at IC50 measured after 24 to 48 hrs by Western blot analysis", "format": "functional, cell-based", "settings": "time 24-48 hrs"}, "[25]": {"system": "Hs-578T", "assay": "Induction of apoptosis in human Hs-578T cells assessed as increase in caspase-9 protein expression at IC50 measured after 24 to 48 hrs by Western blot analysis", "format": "functional, cell-based", "settings": "time 24-48 hrs"}, "[26]": {"system": "Hs-578T", "assay": "Induction of apoptosis in human Hs-578T cells assessed as increase in BAD protein expression at IC50 measured after 24 to 48 hrs by Western blot analysis", "format": "functional, cell-based", "settings": "time 24-48 hrs"}, "[27]": {"assay": "Toxicity in wild type C57BL/6J mouse assessed as tremor at 10 to 50 mg/kg, ip administered daily for 7 days and measured daily", "format": "organism-based", "settings": "in vivo, 168 h, dose 10-50 mg/kg, time 7 day"}, "[28]": {"system": "Hs-578T", "assay": "Induction of cell cycle arrest in human Hs-578T cells assessed as accumulation of cells at S phase at IC50 measured after 48 hrs by RNase/PI staining based flow cytometry analysis", "format": "functional"}, "[29]": {"system": "Hs-578T", "assay": "Induction of apoptosis in human Hs-578T cells assessed as increase in cleaved PARP level at IC50 measured after 48 hrs by Western blot analysis", "format": "functional, cell-based"}, "[30]": {"assay": "Toxicity in wild type C57BL/6J mouse assessed as effect on spontaneous activity at 10 to 50 mg/kg, ip administered daily for 7 days and measured daily", "format": "organism-based", "settings": "in vivo, 168 h, dose 10-50 mg/kg, time 7 day"}, "[31]": {"system": "Hs-578T", "assay": "Cytotoxicity against human Hs-578T cells assessed as inhibition of cell growth incubated for 72 hrs by SRB assay", "format": "functional, cell-based"}, "[32]": {"assay": "Toxicity in wild type C57BL/6J mouse assessed as mean food intake at 50 mg/kg, ip administered daily for 7 days", "format": "organism-based", "settings": "in vivo, 168 h, time 7 day"}, "[33]": {"system": "Hs-578T", "assay": "Cytotoxicity against human Hs-578T cells assessed as reduction in cell proliferation at 0.5 times IC50 measured after 24 hrs by BrdU incorporation assay relative to control", "format": "functional", "set-up": "scale not given: the % may be the effect or the level left"}, "[34]": {"assay": "Toxicity in wild type C57BL/6J mouse assessed as straub tail reaction at 10 to 50 mg/kg, ip administered daily for 7 days and measured daily", "format": "organism-based", "settings": "in vivo, 168 h, dose 10-50 mg/kg, time 7 day"}, "[35]": {"system": "Hs-578T", "assay": "Induction of cell cycle arrest in human Hs-578T cells assessed as reduction in G0/G1 cell population at IC50 measured after 24 hrs by RNase/PI staining based flow cytometry analysis", "format": "functional"}, "[36]": {"assay": "Toxicity in wild type C57BL/6J mouse assessed as effect on eyelid reflexes at 10 to 50 mg/kg, ip administered daily for 7 days and measured daily", "format": "organism-based", "settings": "in vivo, 168 h, dose 10-50 mg/kg, time 7 day"}, "[37]": {"organism": "Homo sapiens", "assay": "Selectivity index, ratio of IC50 for human MCF-10A cells to IC50 for human Hs-578T cells"}, "[38]": {"assay": "Toxicity in wild type C57BL/6J mouse assessed as effect on body position at 10 to 50 mg/kg, ip administered daily for 7 days and measured daily", "format": "organism-based", "settings": "in vivo, 168 h, dose 10-50 mg/kg, time 7 day"}, "[39]": {"system": "Hs-578T", "assay": "Cytotoxicity against human Hs-578T cells assessed as reduction in cell proliferation at 0.5 times IC50 measured after 48 hrs by BrdU incorporation assay relative to control", "format": "functional", "set-up": "scale not given: the % may be the effect or the level left"}}, "note": "The source made the active and inactive calls. No cut-off for these calls is given here."}
{"smiles": "Brc1ccc2c(c1)-c1cc(-c3ccccc3)nc3c1C(N=CN3c1ccccc1)O2", "note": "(centres undefined)", "values": [{"measurement": "Activity", "setting": "[1]", "value": "~50", "unit": "%"}, {"measurement": "Activity", "setting": "[2]", "value": "Non-Toxic"}, {"measurement": "Activity", "setting": "[3]", "value": "inactive"}, {"measurement": "Activity", "setting": "[4]", "value": "Non-Toxic"}, {"measurement": "Activity", "setting": "[5]", "value": "Non-Toxic"}, {"measurement": "viability at 30 µM", "setting": "[6]", "value": 40.5, "unit": "%"}, {"measurement": "viability at 10 µM", "setting": "[7]", "value": 58, "unit": "%"}, {"measurement": "Activity", "setting": "[8]", "value": "Non-Toxic"}, {"measurement": "Activity", "setting": "[9]", "value": "Active"}, {"measurement": "Activity", "setting": "[10]", "value": "Non-Toxic"}, {"measurement": "Activity", "setting": "[11]", "value": "Non-Toxic"}, {"measurement": "Activity", "setting": "[12]", "value": "Non-Toxic"}, {"measurement": "Activity", "setting": "[13]", "value": "Non-Toxic"}, {"measurement": "viability at 30 µM", "setting": "[14]", "value": 25.9, "unit": "%"}, {"measurement": "Activity", "setting": "[15]", "value": "~ 3 g/day"}, {"measurement": "Activity", "setting": "[16]", "value": "Active"}, {"measurement": "Activity", "setting": "[17]", "value": "~ 4 ml"}, {"measurement": "Activity", "setting": "[18]", "value": "~50", "unit": "%"}, {"measurement": "IC50 at 72 h", "setting": "[19]", "value": 36.8, "unit": "µM"}, {"measurement": "Activity", "setting": "[20]", "value": "Active"}, {"measurement": "Activity", "setting": "[21]", "value": "Non-Toxic"}, {"measurement": "viability at 30 µM", "setting": "[22]", "value": 32.6, "unit": "%"}, {"measurement": "Activity", "setting": "[23]", "value": "Non-Toxic"}, {"measurement": "Activity", "setting": "[24]", "value": "Active"}, {"measurement": "Activity", "setting": "[25]", "value": "Active"}, {"measurement": "Activity", "setting": "[26]", "value": "Active"}, {"measurement": "Activity", "setting": "[27]", "value": "Non-Toxic"}, {"measurement": "Activity", "setting": "[28]", "value": "Active"}, {"measurement": "Activity", "setting": "[29]", "value": "Active"}, {"measurement": "Activity", "setting": "[30]", "value": "Non-Toxic"}, {"measurement": "IC50", "setting": "[31]", "value": 8.63, "unit": "µM"}, {"measurement": "Activity", "setting": "[32]", "value": 2.94, "unit": "g/day"}, {"measurement": "Activity", "setting": "[33]", "value": "~8", "unit": "%"}, {"measurement": "Activity", "setting": "[34]", "value": "Non-Toxic"}, {"measurement": "Activity", "setting": "[35]", "value": "Active"}, {"measurement": "Activity", "setting": "[36]", "value": "Non-Toxic"}, {"measurement": "Ratio IC50", "setting": "[37]", "value": 3.26}, {"measurement": "Activity", "setting": "[38]", "value": "Non-Toxic"}, {"measurement": "Activity", "setting": "[39]", "value": 10, "unit": "%"}]}
